The structures appear in SMILES notation. In brackets after ≈: the same amount, converted by molar mass. Some results are limits rather than exact numbers.

Broadly, the inhibition is the share of the control response that was lost under treatment. One may read the inhibition in vivo as the relative decrease from the control value, in per cent. The IC50 is the concentration at which inhibition is half-maximal. Usually bioavailability stands for dose-corrected exposure relative to a reference, in per cent. A high value points to good availability.

Series [1] deals with Staphylococcus aureus. The series can be described thus: Antimicrobial activity against Staphylococcus aureus assessed as reduction in bacterial growth at 100 ppm relative to control. The format is functional.
In series [2] the test system is Candida albicans. Nature of the series: Antimicrobial activity against Candida albicans assessed as reduction in […] growth at 100 ppm relative to control. The format is functional.
Another series has as its system Aureobasidium pullulans. Nature of the series: Antimicrobial activity against Pullularia pullulans assessed as reduction in microbial growth at 100 ppm relative to control. The format is functional.
For series [3], the system named is Aspergillus terreus. The series can be described thus: Antimicrobial activity against Aspergillus terreus assessed as reduction in microbial growth at 100 ppm relative to control. The format is functional.
Series [4] has as its system Trichophyton mentagrophytes. The series can be described thus: Antimicrobial activity against Trichophyton mentagrophytes assessed as reduction in microbial growth at 100 ppm relative to control. The format is functional.
Series [5] has as its system MCF7. The series can be described thus: Growth inhibition of human MCF7 cells at 10 uM. The format is functional. The following applies: read-out: GI.
For a further series, the system named is UO-31. The series can be described thus: Growth inhibition of human UO31 cells at 10 uM. The following applies: read-out: GI. The format is functional.
The test system of series [6] is Rattus norvegicus. Nature of the series: Anti-asthmatic activity in rat assessed as inhibition of egg albumin-induced duration of symptoms of dyspnoea at 3 mg/kg, po administered 90 mins prior to dyspnoea induction. The format is functional.
The next series concerns the target Lipoxygenase (Glycine max, UniProt Q39829). The series can be described thus: Inhibition of soybean lipoxygenase.
Series [7] concerns Trichophyton mentagrophytes. Nature of the series: Antimicrobial activity against Trichophyton mentagrophytes assessed as reduction in microbial growth at 1 to 10 ppm relative to control. The format is functional.
Series [8] relates to Candida albicans. The series can be described thus: Antimicrobial activity against Candida albicans assessed as reduction in […] growth at 500 to 1000 ppm relative to control. The format is functional.
The test system of series [9] is Staphylococcus aureus. The series can be described thus: Antimicrobial activity against Staphylococcus aureus assessed as reduction in bacterial growth at 500 to 1000 ppm relative to control. The format is functional.
In series [10] the test system is Aspergillus terreus. Nature of the series: Antimicrobial activity against Aspergillus terreus assessed as reduction in microbial growth at 1 to 10 ppm relative to control. The format is functional.
The test system of a further series is Bacillus subtilis. The series can be described thus: Antimicrobial activity against Bacillus subtilis assessed as reduction in microbial growth at 1 to 10 ppm relative to control. The format is functional.
The test system of a further series is HOP-92. Nature of the series: Cytotoxicity against human HOP92 cells assessed as cell growth inhibition after 48 hrs by SRB assay. The format is functional, cell-based. The note with it: HOP-92, 48 h. For orientation: Sulforhodamine B stains cellular protein and so reports cell mass.
Series [11] deals with MCF7. Nature of the series: Cytotoxicity against human MCF7 cells assessed as cell growth inhibition after 48 hrs by SRB assay. The format is functional, cell-based. The note with it: MCF7, 48 h.
Another series deals with Escherichia coli. Nature of the series: Antibacterial activity against Escherichia coli. The note with it: Escherichia coli. The format is functional.
For another series, the system named is Salmonella typhimurium. The series can be described thus: Antibacterial activity against Salmonella typhimurium. The format is functional, Salmonella enterica subsp. enterica serovar Typhimurium. The following applies: Salmonella enterica.
The test system of series [12] is Staphylococcus aureus. The series can be described thus: Antibacterial activity against methicillin-resistant Staphylococcus aureus. The format is functional.
The next series relates to Bacillus cereus. The series can be described thus: Antibacterial activity against Bacillus cereus. The format is functional, organism-based.
Series [13] is described as follows: Toxicity in rat assessed as survival rate at 50 mg/kg. The following applies: in vivo. The format is organism-based.
A short description of series [14]: Inhibition of lipoxygenase in rat peritoneal cavity resident cells.
Series [15] deals with Rattus norvegicus. Nature of the series: Antiinflammatory activity in rat assessed as inhibition of yeast-induced foot edema at 60 mg/kg. The format is functional.
In series [16] the target is Intercellular adhesion molecule 1 (Homo sapiens, UniProt P05362). The series can be described thus: Inhibition of ICAM1 (unknown origin).
Series [17] in a line: Oral bioavailability in rat at 3 mg/kg. The format is ADME, organism-based. The following applies: in vivo.
Series [18] addresses Vascular cell adhesion protein 1 (Homo sapiens, UniProt P19320). The series can be described thus: Inhibition of VCAM1 (unknown origin).
In series [19] the test system is Mus musculus. Nature of the series: Anti-inflammatory activity in mouse IL-1-induced paw inflammation model assessed as inhibition of neutrophil infiltration at 10 mg/kg, po. The format is functional. The following applies: Mus musculus, po.
For series [20], the system named is Candida albicans. Nature of the series: microbe, parasite or virus in culture.
Series [21] relates to Aspergillus niger. The series can be described thus: Antifungal activity against Aspergillus niger. The format is functional.
Series [22] deals with Aspergillus niger. The series can be described thus: Antifungal activity against Aspergillus niger by CLSI protocol based method. The format is functional.
In series [23] the test system is Human immunodeficiency virus. The series can be described thus: Antiviral activity against HIV infected in human MT4 cells. The following applies: Human immunodeficiency virus 1, MT4. The format is functional, organism-based.
A further series concerns Ancylostoma caninum. Nature of the series: Anthelmintic activity against dog hookworm larvae infected in mouse assessed as protection against infection rate at 0.06%. The format is functional.
The subject of series [24] is HUVEC. The series can be described thus: Anti-inflammatory activity in human HUVEC cells assessed as reduction in TNFalpha-induced VCAM expression after 4 hrs by ELISA. The format is functional, cell-based.
The test system of series [25] is HUVEC. The series can be described thus: Anti-inflammatory activity in human HUVEC cells assessed as reduction in TNFalpha-induced E-selectin expression after 4 hrs by ELISA. The format is functional, cell-based.
Series [26] relates to Mus musculus. The series can be described thus: Anti-inflammatory activity in IL1-induced paw inflammation Balb/c mouse model assessed as inhibition of neutrophil migration at 10 mg/kg, po, pretreated for 30 mins followed by IL1 challenge measured after 2 hrs by spectrophotometric method. The format is functional.
Series [27] in a line: Antioxidant activity assessed as H2O2 scavenging activity. The format is functional. The note with it: dose or concentration not given here.
Series [28] in a line: Antioxidant activity assessed as DPPH radical scavenging activity. The format is functional. The following applies: dose or concentration not given here.
The species named for series [29] is Mus musculus. The series can be described thus: Antioxidant activity in Swiss albino mouse assessed as GSH level per mg tissue. The format is functional.
For series [30], the species on record is Mus musculus. Nature of the series: Antioxidant activity in Swiss albino mouse assessed as LPO level per mg tissue. The format is functional.
The subject of series [31] is Rattus norvegicus. The series can be described thus: Anti-asthmatic activity in rat assessed as inhibition of egg albumin-induced duration of symptoms of dyspnoea at 5 mg/kg, po administered 90 mins prior to dyspnoea induction. The format is functional.
Series [32] can be described thus: Inhibition of LTB4 formation in rat polymorphonuclear leukocytes preincubated for 2 mins followed by A-23187 addition after 4 mins. The format is functional, cell-based.

Sequence of Vascular cell adhesion protein 1 (P19320 whole entry): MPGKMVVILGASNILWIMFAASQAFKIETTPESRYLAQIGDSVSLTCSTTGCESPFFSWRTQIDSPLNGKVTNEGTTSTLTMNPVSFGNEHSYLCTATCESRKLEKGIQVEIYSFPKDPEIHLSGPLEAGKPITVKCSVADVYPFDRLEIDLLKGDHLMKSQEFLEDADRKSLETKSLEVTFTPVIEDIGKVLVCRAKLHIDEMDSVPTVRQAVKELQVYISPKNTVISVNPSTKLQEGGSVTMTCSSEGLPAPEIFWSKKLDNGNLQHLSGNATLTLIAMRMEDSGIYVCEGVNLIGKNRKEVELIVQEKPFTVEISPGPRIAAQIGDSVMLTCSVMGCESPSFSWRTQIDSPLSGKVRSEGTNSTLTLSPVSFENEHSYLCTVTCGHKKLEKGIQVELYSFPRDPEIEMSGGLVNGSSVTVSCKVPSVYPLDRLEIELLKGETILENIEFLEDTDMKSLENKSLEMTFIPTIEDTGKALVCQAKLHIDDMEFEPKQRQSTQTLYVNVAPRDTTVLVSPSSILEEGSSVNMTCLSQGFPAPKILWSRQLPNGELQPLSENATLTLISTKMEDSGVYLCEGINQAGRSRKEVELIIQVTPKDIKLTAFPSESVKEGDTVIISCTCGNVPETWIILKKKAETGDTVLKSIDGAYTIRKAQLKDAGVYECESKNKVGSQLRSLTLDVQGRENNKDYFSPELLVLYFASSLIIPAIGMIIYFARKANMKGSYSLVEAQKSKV
Sequence of Intercellular adhesion molecule 1 (P05362 whole entry): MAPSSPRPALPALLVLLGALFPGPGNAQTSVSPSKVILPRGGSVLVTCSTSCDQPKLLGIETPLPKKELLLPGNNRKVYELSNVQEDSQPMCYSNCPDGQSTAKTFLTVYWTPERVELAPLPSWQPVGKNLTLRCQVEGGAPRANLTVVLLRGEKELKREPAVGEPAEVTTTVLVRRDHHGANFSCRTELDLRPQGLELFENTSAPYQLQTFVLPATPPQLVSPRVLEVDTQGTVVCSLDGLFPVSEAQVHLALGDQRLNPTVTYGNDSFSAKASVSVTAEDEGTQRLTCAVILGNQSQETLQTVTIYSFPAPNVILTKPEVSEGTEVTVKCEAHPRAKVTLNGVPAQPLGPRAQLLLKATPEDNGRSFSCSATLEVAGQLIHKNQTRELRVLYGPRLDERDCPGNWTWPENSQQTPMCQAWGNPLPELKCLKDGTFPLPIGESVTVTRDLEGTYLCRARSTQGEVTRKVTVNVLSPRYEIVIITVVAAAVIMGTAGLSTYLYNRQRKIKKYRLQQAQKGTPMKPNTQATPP

With `Clc1nc2c(nc1Cl)N(CCC1CCCN1)c1ccccc1S2` (centres undefined), the inhibition at 100 ppm (in the series on Staphylococcus aureus [1]; in the series with Candida albicans [2]; in the series with Aureobasidium pullulans; in the series on Aspergillus terreus [3]; in series [4]) was 100% each time.
Take `Clc1ccc(N2c3nc4ccccc4cc3Sc3cc4ccccc4nc32)cc1`: the inhibition of growth at 10 µM with MCF7 [5] is 63%; in the series on UO-31, 57 to 73%.
Consider `COc1ccc2c(c1)[S+]([O-])c1nccnc1N2C` (centres undefined), for which the inhibition in vivo at 3 mg/kg in the series on Rattus norvegicus [6] was 12.5%.
In the case of `CCCc1nc(N2CCN(C)CC2)nc2c1Nc1ccccc1S2`, on Lipoxygenase, 8900 nM corresponded to half-maximal inhibition (IC50).
As to `[O-][S+]1c2ccccc2Nc2nc(Cl)c(Cl)nc21` (centres undefined), the “inhibition (INH)” value (in [7]; with Candida albicans [8]; in the series with Staphylococcus aureus [9]; in the series with Aspergillus terreus [10]; in the series on Bacillus subtilis) was 100% each time.
Take `CCN(CC)CCN1c2nc3ccccc3cc2Sc2cc3ccccc3nc21`: the IC50 with HOP-92 and with MCF7 [11] was at most 1000 nM throughout.
For `Cc1ccc2c(c1)Sc1c(F)cc3c(=O)c(C(=O)O)cn(C4CC4)c3c1N2`, the MIC in the series with Escherichia coli, in the series on Salmonella typhimurium, against Staphylococcus aureus [12] and against Bacillus cereus was 1.5 µg/mL (≈ 3.92 µM) each time.
For the molecule `Cn1c(=O)nc2sc3ccccc3nc-2c1=O`, the survival in [13] was 69%. The same molecule returned an IC50 in series [14] of 1400 nM. Besides, the inhibition in vivo at 60 mg/kg in the series on Rattus norvegicus [15] was 69%.
Consider `O=C(O)CC1C2CCCC1CN(Cc1ccc3c(c1)Nc1nccnc1S3)C2` (stereo in doubt; 64c), for which the values for the IC50 in series [16] and in series [18] were 3000 nM and 2500 nM, respectively. Besides, the bioavailability in series [17] is 98.5%. Besides, the inhibition in vivo at 10 mg/kg with Mus musculus [19] worked out at 91.5%.
For `CC(=O)N1CCN(c2ccc(OCC3COC(Cn4ccnc4)(c4ccc(Cl)cc4Cl)O3)cc2)CC1` (centres undefined) [KETOCONAZOLE], the results for the MIC against Candida albicans [20], with Aspergillus niger [21] and in the series on Aspergillus niger [22] were 62.2 µg/mL (≈ 117 µM), 136 µg/mL (≈ 255 µM) and 136 µg/mL (≈ 255 µM), respectively.
In series [23], `CCOCn1c(=O)[nH]c2c(c1=O)Nc1ccc(Cl)cc1S2` displayed a half-inhibitory concentration (IC50) of 4300 nM.
Take `Clc1nc2c(nc1Cl)Sc1ccccc1N2`: in the series on Ancylostoma caninum, the Activity amounted to 90%.
As for `CN(C)S(=O)(=O)NC1CCN(Cc2ccc3c(c2)Nc2nccnc2S3)CC1`, the IC50 in series [16] is 270 to 1400 nM; with HUVEC [24], 360 nM; with HUVEC [25] it was 550 nM; in [18], 4500 nM. In addition, the inhibition in vivo at 10 mg/kg with Mus musculus [26] was 83.4 to 89.7%.
For `COc1ccc2c(c1)Sc1c(F)cc3c(=O)c(C(=O)O)cn(C4CC4)c3c1N2`, the figures for the MIC against Salmonella typhimurium and in the series with Staphylococcus aureus [12] were 6 µg/mL (≈ 15.1 µM) and 25 µg/mL (≈ 62.7 µM), respectively.
Consider `O=C1C(c2ccc(Br)cc2)=C2Sc3cccnc3NC2c2ccccc21` (centres undefined), for which the inhibition in [27] is under 100%.
Consider `O=C(O)c1cn(C2CC2)c2c3c(c(F)cc2c1=O)Sc1ccccc1N3`, for which the MIC in the series on Escherichia coli turned out to be 0.75 µg/mL (≈ 2.04 µM); with Salmonella typhimurium, 6 µg/mL (≈ 16.3 µM); against Bacillus cereus, 3 µg/mL (≈ 8.14 µM).
As for `COc1cccc2c1Nc1c(c3nc4ccccc4c(=O)n3c3c(OC)cccc13)S2`, the inhibition in series [28] fell in the range of 45.6 to 47.3%. Moreover, the Activity in the series listed under Mus musculus [29] is 6.8 nM; in the series listed under Mus musculus [30], 4.5 to 4.6 nM.
Turning to `CN1c2ccc(O)c(Cl)c2Sc2nccnc21`, in the series on Rattus norvegicus [31], the inhibition in vivo at 5 mg/kg worked out at 47%. The molecule further returned a concentration for half-maximal inhibition (IC50) in series [32] of 0.05 to 1 µg/mL (≈ 0.188 to 3.76 µM). Further, the inhibition in vivo at 3 mg/kg with Rattus norvegicus [6] worked out at 43%.

These data come from ChEMBL document CHEMBL4138122, “Azaphenothiazines - promising phenothiazine derivatives. An insight into nomenclature, synthesis, structure elucidation and biological properties” (Eur J Med Chem, 2017).
